Measurements as given in US20090326007A1, “Compounds and methods for modulating sir2 protein activity” (priority 2007, published 2009).
Entries after “also recorded” stand apart in the source; their conditions may differ. Values belong to the compound of their own block, whether it stands above or below them.

How the values were obtained:
[1] = target: Hst2 (1-294) (Saccharomyces cerevisiae, UniProt P53686); test: High throughput screen for Hst2 effectors in the presence of nicotinamide (fluorimetric); details: Table 3, activators, nicotinamide present
Chain of Hst2 (1-294) (P53686 1-294): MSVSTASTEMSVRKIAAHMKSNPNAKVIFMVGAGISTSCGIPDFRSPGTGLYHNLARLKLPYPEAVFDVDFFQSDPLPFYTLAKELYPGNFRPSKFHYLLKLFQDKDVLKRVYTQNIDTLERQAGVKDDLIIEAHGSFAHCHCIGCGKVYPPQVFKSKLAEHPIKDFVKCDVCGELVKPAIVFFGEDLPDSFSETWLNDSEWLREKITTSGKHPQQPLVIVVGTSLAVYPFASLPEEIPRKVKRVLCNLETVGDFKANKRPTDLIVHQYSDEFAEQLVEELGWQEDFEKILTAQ
Description: High Throughput Screening (HTS). A high throughput screening protocol based on the SIRT1 Fluorimetric Activity Assay/Drug Discovery Kit was developed (BIOMOL International, Inc., Plymouth Meeting, Pa.). […] One hundred nanoliters of either a DMSO control or a compound from the small molecule screening library was added to each well by pinning. […] After 45 minutes, each plate was read on a fluorescence plate reader at an excitation wavelength of 360 nm and an emission wavelength of 460 nm. […] The fluorescence signal from each well was normalized to the DMSO controls on each 384-well plate and compared to a DMSO control population based on the following equation:
where χ is the fluorescence signal of the well, μ is the mean of the control (DMSO) population and σ is the standard deviation of the control population. […]

[2] = target: T1, yHst2 I117F mutant (Saccharomyces cerevisiae, UniProt P53686, I117F); test: Kinetic assay, deacetylase fluorescent activity assay kit, I117F mutant; format: biochemical
T1 construct: Point mutations in yHst2 (1-294) were generated from the pRSET-A plasmid; His6 (N); made in house
T1 sequence (P53686 1-294 I117F): as the sequence (P53686 1-294) above, with I117F counted along it
Excerpt: (§1) Protein Preparation, Crystallization and Structure Determination.
(§2) Kinetic Assays. […] Data taken in triplicate were fitted to the equation l/v=(Km/Vmax)(1/[S])+1/Vmax, using a root mean least squares approach in the form of a double reciprocal Lineweaver-Burk plot where the x-intercept is equal to −l/Km. […] The slopes of the Dixon Plot were replotted versus 1/[NAD^+], and the slope of the corresponding line was set equal to Km/(Vmax*Ki), in order to calculate Ki.

[3] = target: T2, yHst2 D118N mutant (Saccharomyces cerevisiae, UniProt P53686, D118N); test: Kinetic assay, deacetylase fluorescent activity assay kit, D118N mutant; format: biochemical
T2 construct: Point mutations in yHst2 (1-294) were generated from the pRSET-A plasmid; His6 (N); made in house
T2 sequence (P53686 1-294 D118N): as the sequence (P53686 1-294) above, with D118N counted along it
Excerpt: as §1, §2

[4] = target: T3, yHst2 I117V mutant (Saccharomyces cerevisiae, UniProt P53686, I117V); test: Kinetic assay, deacetylase fluorescent activity assay kit, I117V mutant; format: biochemical; details: I117V mutant; read-out: Km for NAD+
T3 construct: Point mutations in yHst2 (1-294) were generated from the pRSET-A plasmid; His6 (N); made in house
T3 sequence (P53686 1-294 I117V): as the sequence (P53686 1-294) above, with I117V counted along it
Excerpt: as §1, §2

[5] = target: T4, wild-type yHst2 (Saccharomyces cerevisiae, UniProt P53686); test: Kinetic assay, deacetylase fluorescent activity assay kit, wild-type enzyme; format: biochemical; details: read-out: Km for NAD+
T4 construct: The 64-residue C-terminal deletion construct of yHst2 (residues 1-294) and point mutants were purified; His6 (N); made in house
T4 sequence (P53686 1-294): as the sequence (P53686 1-294) above
Excerpt: as §2

[6] = target: T5, human SIRT2 (Homo sapiens, UniProt Q8IXJ6); test: Inhibition assay against human SIRT2 (fluorigenic)
T5 sequence (Q8IXJ6 1-352 isoform Q8IXJ6-2): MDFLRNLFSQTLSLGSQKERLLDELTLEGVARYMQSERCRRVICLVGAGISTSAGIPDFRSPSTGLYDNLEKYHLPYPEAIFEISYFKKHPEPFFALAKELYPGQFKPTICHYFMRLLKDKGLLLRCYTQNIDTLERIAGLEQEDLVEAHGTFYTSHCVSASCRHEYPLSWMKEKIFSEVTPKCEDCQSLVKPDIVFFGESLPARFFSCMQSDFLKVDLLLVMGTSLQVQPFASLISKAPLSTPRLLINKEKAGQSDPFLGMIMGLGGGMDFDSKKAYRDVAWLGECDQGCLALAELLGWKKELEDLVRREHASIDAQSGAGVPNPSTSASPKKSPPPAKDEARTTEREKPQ
Description: (§3) Human recombinant SIRT3 was purchased from Enzo Life Sciences.
(§4) Inhibition Assay Against Human SIRT2 and SIRT3. […] Two independent measurements were performed for each compound and the average and standard deviation are reported.

[7] = target: T6, full-length human SIRT1 (Homo sapiens, UniProt Q96EB6); test: IC50 determination, fluorigenic deacetylase assay, FL SIRT1; details: read-out: SIRT1 IC50; Table 5; 240 μM NAD+, 200 μM substrate, 1 μM FL SIRT1, 15 min
T6 sequence (Q96EB6 1-747): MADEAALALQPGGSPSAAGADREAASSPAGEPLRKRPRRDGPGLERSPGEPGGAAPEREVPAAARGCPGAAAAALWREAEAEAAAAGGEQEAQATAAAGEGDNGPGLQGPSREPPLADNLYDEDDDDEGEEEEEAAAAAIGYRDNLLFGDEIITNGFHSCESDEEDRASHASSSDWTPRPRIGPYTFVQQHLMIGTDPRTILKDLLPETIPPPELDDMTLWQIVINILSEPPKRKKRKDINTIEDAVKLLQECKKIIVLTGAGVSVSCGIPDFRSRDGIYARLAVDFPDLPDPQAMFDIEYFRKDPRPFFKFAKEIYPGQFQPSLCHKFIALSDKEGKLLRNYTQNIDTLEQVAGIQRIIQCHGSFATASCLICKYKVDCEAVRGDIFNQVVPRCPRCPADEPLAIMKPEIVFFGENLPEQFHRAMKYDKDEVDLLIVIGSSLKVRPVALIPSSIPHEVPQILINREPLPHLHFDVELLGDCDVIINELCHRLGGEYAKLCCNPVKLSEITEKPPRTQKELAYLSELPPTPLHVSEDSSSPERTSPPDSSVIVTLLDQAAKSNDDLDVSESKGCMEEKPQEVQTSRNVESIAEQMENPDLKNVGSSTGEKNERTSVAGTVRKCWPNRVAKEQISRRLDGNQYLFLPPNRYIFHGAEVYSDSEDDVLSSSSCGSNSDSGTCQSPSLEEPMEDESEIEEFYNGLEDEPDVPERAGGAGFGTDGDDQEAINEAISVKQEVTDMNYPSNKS
Description: Cells were harvested and lysed by sonication in buffer containing 50 mM Tris, pH 7.5, 200 mM NaCl, 5 mM imidizole, 10 mM β-mercaptoethanol (BME) and 0.1 mg/mL PMSF. Soluble FL SIRT1 was purified by Ni-NTA (Qiagen, Valencia, Calif.) in a buffer containing 50 mM Tris, pH 7.5, 300 mM NaCl, 10 mM BME, 5% glycerol and 30-600 mM imidizole followed by SUPERDEX-200 gel filtration in buffer containing 50 mM Tris, pH 7.5, 150 mM NaCl, and 10 mM BME. FL SIRT1 eluted between the 670 kDa and 158 kDa globular protein standards. Since SIRT1 is known to aggregate after several days at 4° C., the protein was aliquoted and frozen at −80° C. for use in fluorigenic assays.
IC50 Determination. […] The dose-response curves were then fit to one-site competition or sigmoidal-dose response curves as appropriate in [sequence] PRISM (GraphPad Software, La Jolla, Calif.) and the IC50 was determined. Three independent IC50 measurements were performed for each compound and the average and standard deviation are reported.

[8] = target: T7, human SIRT3 (Homo sapiens, UniProt Q9NTG7); test: Inhibition assay against human SIRT3 (fluorigenic)
T7 sequence (Q9NTG7 1-399): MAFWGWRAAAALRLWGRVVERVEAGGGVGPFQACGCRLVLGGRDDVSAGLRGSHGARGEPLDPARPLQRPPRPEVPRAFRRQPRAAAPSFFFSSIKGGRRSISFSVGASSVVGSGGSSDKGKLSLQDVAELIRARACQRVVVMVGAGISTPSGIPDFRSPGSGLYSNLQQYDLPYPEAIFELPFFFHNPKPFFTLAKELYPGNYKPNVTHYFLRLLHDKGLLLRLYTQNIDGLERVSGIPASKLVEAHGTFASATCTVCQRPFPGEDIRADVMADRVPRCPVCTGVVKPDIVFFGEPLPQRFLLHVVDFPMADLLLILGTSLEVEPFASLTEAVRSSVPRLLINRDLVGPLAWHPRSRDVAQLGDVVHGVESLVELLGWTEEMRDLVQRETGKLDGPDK
Description: as §3, §4

[9] = target: T8, Hst2 (Saccharomyces cerevisiae, UniProt P53686); test: SAR analysis, fluorigenic assay at 50 and 500 μM; format: biochemical; details: Table 7, 500 μM compound, relative to control; read-out: % Activity 500 μM
T8 sequence (P53686 1-294): as the sequence (P53686 1-294) above
Excerpt: Structure Activity Relationship (SAR) Analysis.

[10] = target: T8, Hst2
[11] = target: T8, Hst2; test: Competition assay (inhibition mode versus NAD+ and acetyl-lysine substrate); format: biochemical
Description: Competition Assay. […] The fluorigenic assay described above was used with a fixed enzyme concentration of 1 μM. When competition with NAD^+ was being tested, the FLUOR DE LYS-SIRT1 deacetylase substrate was held at a constant concentration of 100 μM and the NAD^+ was titrated from ⅓-5× KmNAD+ (5-80 μM). […] The inhibitors were titrated from ˜½-several times their estimated Ki as indicated. The reaction time was 15 minutes, and each condition was tested in duplicate. The Km, kcat and kcat/Km values were determined by direct fit of the data in SIGMAPLOT (Systat Software, Point Richmond, Calif.) to the Michealis-Menten equation. The Ki and Kis (the slope and intercept inhibition constants, respectively) and the competition type were also determined by a direct fit in SIGMAPLOT to both partial and full competitive, noncompetitive, uncompetitive and mixed competition models. Best-fit models were determined by several statistical methods including R^2, AICs and Sy.x as well as empirical evaluation of α and β values.
To determine the mechanism of inhibition of the compounds identified by HTS and to gain insight as to where these compounds may bind to the enzyme, inhibition modes were determined by varying each of the substrates with the other maintained at a fixed, saturating concentration (Table 11).

Fold Activation [1]: 2.2 Fold
SMILES: CC1(C)CC(=O)C2=C(C1)NC1=C(C(=O)CC(C)(C)C1)C2c1cccc(F)c1

SMILES: NC(=O)c1ccc[n+]([C@@H]2O[C@H](COP(=O)([O-])OP(=O)(O)OC[C@H]3O[C@@H](n4cnc5c(N)ncnc54)[C@H](O)[C@@H]3O)[C@@H](O)[C@H]2O)c1 [NAD^+]
increased Km for NAD+ compared to wild-type enzyme ([2]; I117F mutant versus wild-type): less than 2 fold
Km ([2]; I117F mutant, read-out: Km for NAD+): 25.8 µM
increase of Km for NAD+ over wild-type ([3]; D118N mutant versus wild-type): more than 28 fold
Km ([3]; D118N mutant, read-out: apparent Km for NAD+): 454 µM
Km [4]: 25.5 µM
Km [5]: 16.1 µM

inhibitory activity against human SIRT2 (in words) ([6]; 50 or 100 μM compound): only weak inhibitory activity
remaining activity at 100 µM ([6]; read-out: percent of residual enzyme activity, SIRT2): 92.1 ± 1.5%
IC50 [7]: 570 ± 200 µM
inhibitory activity against human SIRT3 (in words) ([8]; 50 or 100 μM compound): only weak inhibitory activity
remaining activity at 100 µM ([8]; read-out: percent of residual enzyme activity, SIRT3): 96.4 ± 0.5%
activity at 500 µM [9]: 5%
IC50 lower than that of compound 15b [10]: about 2 fold
kcat ([11]; substrate NAD+ varied): 0.0137 ± 0.00233 s⁻¹
Inhibition Mechanism ([11]; substrate NAD+ varied, acetyl-lysine substrate 100 μM): fully mixed
kcat ([11]; substrate acetyl-lysine varied): 0.0167 ± 0.0033 s⁻¹
α (mixed inhibition model) ([11]; with respect to NAD+): 2.6
SMILES: COCC#CC1c2cc(O)c(OC)cc2CCN1C (stereo not shown) [Compound 15a, 6-Methoxy-1-(3-methoxy-prop-1-ynyl)-2-methyl-1,2,3,4-tetrahydro-isoquinolin-7-ol]
Inhibition Mechanism ([11]; substrate acetyl-lysine varied, NAD+ 160 μM): fully non-competitive; also recorded: NC (full)
